Measurements published in patent US11446267B2, “Nanoparticle compositions, methods of fabrication, and use for drug delivery” (DIGNITY HEALTH, priority 2017, dated 2022).

Legend:
[1] = test system: primary motor neurons; conditions: oxidative injury and excitotoxicity; cited from earlier work
[2] = cited from earlier work
[3] = molecular target: T1, RARα (Homo sapiens, UniProt P10276); conditions: cited from earlier work
T1 sequence (P10276 1-462): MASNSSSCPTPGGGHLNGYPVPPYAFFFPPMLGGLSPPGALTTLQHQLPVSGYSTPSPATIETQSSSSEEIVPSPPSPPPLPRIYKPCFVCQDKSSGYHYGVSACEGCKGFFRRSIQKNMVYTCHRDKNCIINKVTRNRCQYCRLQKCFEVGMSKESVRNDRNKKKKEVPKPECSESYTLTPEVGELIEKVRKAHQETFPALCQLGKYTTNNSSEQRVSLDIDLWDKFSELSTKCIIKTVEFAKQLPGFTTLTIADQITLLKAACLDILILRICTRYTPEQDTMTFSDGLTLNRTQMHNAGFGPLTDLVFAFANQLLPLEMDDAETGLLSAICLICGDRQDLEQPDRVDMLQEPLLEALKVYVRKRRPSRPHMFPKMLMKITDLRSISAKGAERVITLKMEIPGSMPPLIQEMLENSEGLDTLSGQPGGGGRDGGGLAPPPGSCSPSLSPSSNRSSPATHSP

[4] = in vivo; cited from earlier work
[5] = test system: RXRs; conditions: cited from earlier work
[6] = molecular target: T2, RARβ (Homo sapiens, UniProt P10826); conditions: cited from earlier work
T2 sequence (P10826 1-455): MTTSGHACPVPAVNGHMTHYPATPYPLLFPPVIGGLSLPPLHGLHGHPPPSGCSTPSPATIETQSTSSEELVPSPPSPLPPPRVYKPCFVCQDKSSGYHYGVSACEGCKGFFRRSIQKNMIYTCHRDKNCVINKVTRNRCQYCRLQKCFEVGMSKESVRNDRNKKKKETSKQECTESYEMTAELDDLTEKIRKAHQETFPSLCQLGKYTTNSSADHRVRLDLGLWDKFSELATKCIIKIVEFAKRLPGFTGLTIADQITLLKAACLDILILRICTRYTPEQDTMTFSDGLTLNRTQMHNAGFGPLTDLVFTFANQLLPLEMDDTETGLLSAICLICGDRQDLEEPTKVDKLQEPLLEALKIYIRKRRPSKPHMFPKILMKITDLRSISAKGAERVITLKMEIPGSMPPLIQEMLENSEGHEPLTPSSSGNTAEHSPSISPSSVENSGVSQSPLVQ

[7] = test system: MAPK signaling; test: MAPK signaling after direct injection into the striatum; assay type: in vivo; conditions: injected directly into the striatum of healthy mice
[8] = test system: ALS patients; conditions: subset of ALS patients, phase III study; cited from earlier work
[9] = chronic administration; cited from earlier work

## COc1ccc(-c2ccc3cc(C(=O)O)ccc3c2)cc1C12CC3CC(CC(C3)C1)C2 [Adapalene]
[1]
  cell death: reduced cell death
[2]
  solubility in water: less than 1 μg/ml
[3]
  AC50: 9.2 nM
[4]
  clearance from the plasma: rapidly cleared from the plasma
[5]
  interaction with RXRs: does not interact
[6]
  AC50: 2.2 nM
[7]
  activation of MAPK signaling: equivalently activated MAPK signaling

## CC1=NN(c2ccccc2)C(=O)C1 [Edaravone]
[8]
  disease progression: reduce disease progression

## C=C(c1ccc(C(=O)O)cc1)c1cc2c(cc1C)C(C)(C)CCC2(C)C [bexarotene]
[9]
  motor impairments, lifespan, neuroprotection: reduced motor impairments, increased lifespan and was neuroprotective
